What was measured:
TYK2 (JH2 domain) = TYK2 (JH2 domain) (Homo sapiens (Human), UniProt P29597); test: TYK2 JH2 domain binding assay (DiscoverX KINOMEscan); conditions: 11-point 3-fold dilution, duplicate
[1] = test system: IL12-induced p-STAT4 in human PBMC; test: IL-12 induced pSTAT4 in human PBMC; format: cell-based; conditions: human PBMC, IL-12 10 ng/ml; read-out: p-STAT4 IC50
[2] = test system: INFα induced pSTAT3 in human PBMC; test: INFα induced pSTAT3 in human PBMC; format: cell-based; conditions: human PBMC, INFα 5000 units/ml; read-out: p-STAT3 IC50
Experimental: (§1) Fresh Human PBMCs were resuspended in RPMI 1640 medium with 10% FBS. Cells were seeded in a round bottom 96-well plate at the concentration of 200,000 cells/well. A 10-point dilution series of test compound (top dose 10 uM, 1:5 dilution) was added to the well using the liquid dispenser (Tecan D300e) and incubated for 1 hour at 37 C. Then human INFα recombinant protein (R&D Systems) was added to the well at the final concentration of 5000 units/ml and incubated for 15 minutes at 37 C. Cell lysates were prepared and analyzed by Phospho STAT3 (Tyr705) cellular kit (Cisbio) or Phospho STAT5 (Tyr693) Kit (Meso Scale Discovery) following manufacturer's protocol.
(§2) For calculation of the inhibition rate, the relative pSTAT signal of each well=pSTAT signal of each well−the average pSTAT signal of baseline. The inhibition %=(the average pSTAT signal of INFα treatment wells−the relative of pSTAT signal in each compound containing well)/the average pSTAT signal of INFα treatment wells*100%
The curve was plotted as the inhibition % (y-axis) vs. compounds concentration (x-axis) and was fitted with log(inhibitor) vs. normalized response—Variable slope by GraphPad Prism7.0.

[3] = test system: INFα induced pSTAT5 in human PBMC; test: INFα induced pSTAT5 in human PBMC; format: cell-based; conditions: human PBMC, INFα 5000 units/ml; read-out: p-STAT5 IC50
[4] = test system: GM-CSF-induced pSTAT5 in human PBMC; test: GM-CSF-induced pSTAT5 in human PBMC; format: cell-based; conditions: GM-CSF 10 ng/ml
Experimental: as §1, with “IL-12” for “INFα”, “10 ng/ml” for “5000 units/ml”, “STAT4” for “STAT3 (Tyr705) cellular kit (Cisbio) or Phospho STAT5”
as §2, with “pSTAT4” for “pSTAT”, “well=pSTAT4” for “well=pSTAT”, “IL-12” for “INFα”
(§3) The curve was plotted as the inhibition % (y-axis) vs. compounds concentration (x-axis) and was fitted with log(inhibitor) vs. normalized response—Variable slope by GraphPad Prism7.0. Control is BMS-986165:
(§4) Similar to the method for IL-12 induced pSTAT4 in human PBMC described above, these assays were performed to check if test compounds have cross-activity to JAK1. JAK2 and JAK3 pathways in human PBMC. The procedure is as described with change of stimuli to 10 ng/ml of GM-CSF or 20 ng/ml of IL-2.

[5] = test system: IL-2-induced pSTAT5 in human PBMC; test: IL-2-induced pSTAT5 in human PBMC; format: cell-based; conditions: IL-2 20 ng/ml
Experimental: as §1, with “IL-12” for “INFα”, “10 ng/ml” for “5000 units/ml”, “STAT4” for “STAT3 (Tyr705) cellular kit (Cisbio) or Phospho STAT5”
as §2, with “pSTAT4” for “pSTAT”, “well=pSTAT4” for “well=pSTAT”, “IL-12” for “INFα”
as §3, §4

[6] = Pharmacokinetic study in cynomolgus monkeys; format: in vivo; conditions: cynomolgus monkey, plasma, iv, I.V. (1 mg/kg)
Experimental: The pharmacokinetics of test compounds were evaluated in male C57BL/6 mice, Sprague Dawley rats, Beagle dogs, and cynomolgus monkeys when administered via oral gavage and IV injection. The animals were fasted overnight before administration. Plasma samples were collected predose and at 0.5, 1, 3, 6, 9, 12, and 24 hours postdose. The samples were analyzed by LC/MS/MS and the concentration of test compound at each timepoint was determined by linear regression. Pharmacokinetic parameters were calculated from the plasma concentrations using Pheonix WinNonlin.

Sequence of TYK2 (JH2 domain) (P29597 589-875): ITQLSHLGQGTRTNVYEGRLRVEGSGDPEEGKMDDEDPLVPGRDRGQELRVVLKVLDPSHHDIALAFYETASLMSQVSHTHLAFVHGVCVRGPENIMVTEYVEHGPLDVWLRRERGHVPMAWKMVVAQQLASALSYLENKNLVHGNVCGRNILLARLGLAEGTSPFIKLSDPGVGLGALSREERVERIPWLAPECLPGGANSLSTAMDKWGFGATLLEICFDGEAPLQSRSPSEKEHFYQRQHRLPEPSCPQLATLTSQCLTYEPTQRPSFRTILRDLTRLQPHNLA

Row | Kd (TYK2 (JH2 domain)) [nM] | Structure (SMILES) | IC50 [1] [nM] | IC50 [2] [nM] | also measured
1 | ≤ 1 | [2H]C([2H])([2H])NC(=O)c1nnc(N2CCN(CCOC)C2=O)cc1Nc1cccc(-c2ncn(C)n2)c1OC [Example 9, 6-[3-(2-methoxyethyl)-2-oxo-imidazolidin-1-yl]-4-[2-methoxy-3-(1-methyl-1,2,4-triazol-3-yl)anilino]-N-(trideuteriomethyl)pyridazine-3-carboxamide] | < 100 | 100 to 1000 | 
2 | 1 to 5 | [2H]C([2H])([2H])NC(=O)c1c(Nc2cccc(-c3nnn(C)n3)c2OC)cc(NC(=O)C2CC2)nc1F [Example 42] | 100 to 1000 | 1000 to 10000 | 
3 | 1 to 5 | COc1c(Nc2cc(NC(=O)C3CC3)nc3cn(C)nc23)cccc1-c1ncn(C)n1 [Example 55] | 100 to 1000 | 100 to 1000 | 
4 | ≤ 1 | [2H]C([2H])([2H])NC(=O)c1nnc(N2CCN(C(C)C3CC3)C2=O)cc1Nc1cccc(-c2ncn(C)n2)c1OC (centres unmarked) [Example 82] | < 100 | < 100 | 
5 | ≤ 1 | [2H]C([2H])([2H])NC(=O)c1nnc(N2CCN(CC#N)C2=O)cc1Nc1cccc(-c2ncn(C)n2)c1OC [Example 69] | < 100 | < 100 | 
6 | ≤ 1 | [2H]C([2H])([2H])NC(=O)c1nnc(N2CCN(C)C2=O)cc1Nc1cccc(-c2ncn(C)n2)c1OC [Example 2, 4-[2-methoxy-3-(1-methyl-1,2,4-triazol-3-yl)anilino]-6-(3-methyl-2-oxo-imidazolidin-1-yl)-N-(trideuteriomethyl)pyridazine-3-carboxamide] | < 100 | 100 to 1000 | 
7 | 5 to 10 | COc1c(Nc2cc(NC(=O)C3CC3)nc3ncn(C)c(=O)c23)cccc1-c1ncn(C)n1 [Example 39] | 100 to 1000 | 100 to 1000 | 
8 | ≤ 1 | [2H]C([2H])([2H])NC(=O)c1nnc(N2CCN(C3CCOCC3)C2=O)cc1Nc1cccc(-c2ncn(C)n2)c1OC [Example 86] | < 100 | 100 to 1000 | 
9 | ≤ 1 | [2H]C([2H])([2H])NC(=O)c1nnc(-n2ccn(C)c2=O)cc1Nc1cccc(-c2ncn(C)n2)c1OC [Example 63] | 100 to 1000 | 100 to 1000 | 
10 |  | [2H]C([2H])([2H])CC(=O)c1cnc(Nc2ccc(C(O)(C([2H])([2H])[2H])C([2H])([2H])[2H])c(F)n2)cc1Nc1ncccc1S(C)(=O)=O [Example 203] |  |  | IC50 [3]: < 100 nM; IC50 [4]: 1000 to 10000 nM; IC50 [5]: 100 to 1000 nM; AUC [6]: 595 ± 48 ng·h/mL; clearance [6]: 27.6 ± 1.9 mL/min/kg; half-life [6]: 57.1 ± 13.2 min; Cmax ([6]; read-out: C0 or Cmax (C0)): 787 ± 61 ng/mL; Vd ([6]; read-out: Vdss): 0.931 ± 0.01 L/kg
11 | 1 to 5 | [2H]C([2H])([2H])NC(=O)c1nnc(N2CCN(c3ccccc3)C2=O)cc1Nc1cccc(-c2ncn(C)n2)c1OC [Example 77] | 100 to 1000 | 1000 to 10000 | 
12 | ≤ 1 | [2H]C([2H])([2H])NC(=O)c1nnc(N2CCN(C3CC3)C2=O)cc1Nc1cccc(-c2ncn(C)n2)c1OC [Example 5, 6-(3-cyclopropyl-2-oxo-imidazolidin-1-yl)-4-[2-methoxy-3-(1-methyl-1,2,4-triazol-3-yl)anilino]-N-(trideuteriomethyl)pyridazine-3-carboxamide] | < 100 | 100 to 1000 | 

Reference: patent US11053219B2, “Substituted pyridines as TYK2 inhibitors” (FronThera U.S. Pharmaceuticals LLC, priority 2018, dated 2021)
